Reference: ChEMBL document CHEMBL1743141, “Membrane transporters in drug development” (Nat Rev Drug Discov, 2010)
Peptide text beside a SMILES is read from it.

Legend:
Format in all cases: ADME
[1] = target: T1, Solute carrier organic anion transporter family member 1B1 (Homo sapiens, UniProt Q9Y6L6); assay: Inhibitors of transporters of clinical importance in the absorption and disposition of drugs, OATP1B1
T1 sequence (Q9Y6L6 whole entry): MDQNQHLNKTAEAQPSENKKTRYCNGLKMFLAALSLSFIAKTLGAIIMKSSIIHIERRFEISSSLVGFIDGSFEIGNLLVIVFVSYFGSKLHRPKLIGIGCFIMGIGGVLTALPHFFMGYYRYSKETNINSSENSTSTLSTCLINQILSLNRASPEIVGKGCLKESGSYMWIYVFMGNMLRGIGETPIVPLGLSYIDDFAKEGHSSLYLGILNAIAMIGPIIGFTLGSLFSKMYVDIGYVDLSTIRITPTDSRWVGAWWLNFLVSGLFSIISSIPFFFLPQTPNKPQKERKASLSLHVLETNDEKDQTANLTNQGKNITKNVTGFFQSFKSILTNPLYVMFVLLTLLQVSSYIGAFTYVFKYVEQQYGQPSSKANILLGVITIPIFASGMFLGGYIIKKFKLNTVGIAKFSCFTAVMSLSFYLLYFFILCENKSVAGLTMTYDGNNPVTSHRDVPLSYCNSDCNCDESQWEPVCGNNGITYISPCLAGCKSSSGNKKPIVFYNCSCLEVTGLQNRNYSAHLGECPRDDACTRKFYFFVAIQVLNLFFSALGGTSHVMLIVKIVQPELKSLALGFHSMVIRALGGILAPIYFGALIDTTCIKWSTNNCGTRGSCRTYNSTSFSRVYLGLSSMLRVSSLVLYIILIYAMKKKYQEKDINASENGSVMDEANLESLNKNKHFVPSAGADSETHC

[2] = target: T2, Solute carrier organic anion transporter family member 1B3 (Homo sapiens, UniProt Q9NPD5); assay: Inhibitors of transporters of clinical importance in the absorption and disposition of drugs, OATP1B3
T2 sequence (Q9NPD5 whole entry): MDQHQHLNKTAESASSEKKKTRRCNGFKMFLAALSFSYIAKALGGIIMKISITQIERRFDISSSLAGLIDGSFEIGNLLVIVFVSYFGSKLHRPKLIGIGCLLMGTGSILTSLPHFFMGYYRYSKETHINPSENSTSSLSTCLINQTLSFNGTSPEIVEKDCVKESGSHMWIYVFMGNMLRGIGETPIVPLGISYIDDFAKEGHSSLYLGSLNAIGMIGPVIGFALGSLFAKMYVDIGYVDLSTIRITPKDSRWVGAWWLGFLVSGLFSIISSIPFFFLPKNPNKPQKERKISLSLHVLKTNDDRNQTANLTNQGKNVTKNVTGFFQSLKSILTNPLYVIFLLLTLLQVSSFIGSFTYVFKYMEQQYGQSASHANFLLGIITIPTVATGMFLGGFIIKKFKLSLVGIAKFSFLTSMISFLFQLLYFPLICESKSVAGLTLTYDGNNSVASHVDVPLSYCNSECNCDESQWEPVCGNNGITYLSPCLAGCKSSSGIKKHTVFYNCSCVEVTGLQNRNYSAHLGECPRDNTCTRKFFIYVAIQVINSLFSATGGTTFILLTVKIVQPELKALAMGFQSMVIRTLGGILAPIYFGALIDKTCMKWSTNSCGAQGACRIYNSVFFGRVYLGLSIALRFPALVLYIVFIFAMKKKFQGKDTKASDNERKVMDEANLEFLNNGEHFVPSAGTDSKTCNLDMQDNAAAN

[3] = target: T3, Solute carrier organic anion transporter family member 1A2 (Homo sapiens, UniProt P46721); assay: Inhibitors of transporters of clinical importance in the absorption and disposition of drugs, OATP1A2
T3 sequence (P46721 whole entry): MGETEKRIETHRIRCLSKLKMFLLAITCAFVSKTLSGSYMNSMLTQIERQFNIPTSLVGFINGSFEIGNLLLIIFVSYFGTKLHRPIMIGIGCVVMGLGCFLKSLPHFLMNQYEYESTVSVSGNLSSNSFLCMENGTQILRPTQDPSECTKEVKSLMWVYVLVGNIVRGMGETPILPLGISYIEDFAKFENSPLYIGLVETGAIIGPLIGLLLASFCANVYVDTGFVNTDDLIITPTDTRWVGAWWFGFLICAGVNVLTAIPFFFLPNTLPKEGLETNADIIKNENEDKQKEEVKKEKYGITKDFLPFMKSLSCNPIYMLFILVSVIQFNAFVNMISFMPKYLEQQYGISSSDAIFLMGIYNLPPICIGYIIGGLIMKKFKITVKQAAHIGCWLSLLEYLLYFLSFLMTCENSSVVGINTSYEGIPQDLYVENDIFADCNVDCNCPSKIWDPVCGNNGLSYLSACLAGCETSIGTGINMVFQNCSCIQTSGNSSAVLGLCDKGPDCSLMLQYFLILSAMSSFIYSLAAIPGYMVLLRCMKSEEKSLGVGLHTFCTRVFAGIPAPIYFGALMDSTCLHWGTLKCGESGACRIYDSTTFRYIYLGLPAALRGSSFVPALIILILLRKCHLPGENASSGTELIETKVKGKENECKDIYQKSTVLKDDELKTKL

[4] = target: T4, Solute carrier organic anion transporter family member 2B1 (Homo sapiens, UniProt O94956); assay: Inhibitors of transporters of clinical importance in the absorption and disposition of drugs, OATP2B1
T4 sequence (O94956 whole entry): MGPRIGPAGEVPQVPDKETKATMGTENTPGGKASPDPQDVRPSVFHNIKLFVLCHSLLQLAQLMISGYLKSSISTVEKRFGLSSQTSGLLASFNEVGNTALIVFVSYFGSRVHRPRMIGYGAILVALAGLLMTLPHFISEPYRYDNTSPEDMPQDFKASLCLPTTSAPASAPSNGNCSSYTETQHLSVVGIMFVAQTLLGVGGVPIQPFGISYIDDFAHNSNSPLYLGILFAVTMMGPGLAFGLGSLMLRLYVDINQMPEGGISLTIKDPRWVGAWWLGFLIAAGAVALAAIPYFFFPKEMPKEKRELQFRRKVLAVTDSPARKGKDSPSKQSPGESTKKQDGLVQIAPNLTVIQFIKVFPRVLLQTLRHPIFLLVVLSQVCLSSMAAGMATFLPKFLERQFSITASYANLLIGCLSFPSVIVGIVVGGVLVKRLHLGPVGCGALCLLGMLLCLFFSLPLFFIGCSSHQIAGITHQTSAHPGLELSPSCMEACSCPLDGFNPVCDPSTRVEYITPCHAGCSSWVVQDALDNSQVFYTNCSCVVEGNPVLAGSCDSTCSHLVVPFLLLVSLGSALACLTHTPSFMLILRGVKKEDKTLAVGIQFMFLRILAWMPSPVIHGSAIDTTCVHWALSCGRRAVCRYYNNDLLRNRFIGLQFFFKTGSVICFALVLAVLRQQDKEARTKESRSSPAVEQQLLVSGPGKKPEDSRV

Bile salt export pump = Bile salt export pump (Homo sapiens, UniProt O95342); assay: Inhibitors of transporters of clinical importance in the absorption and disposition of drugs, BSEP
Sequence of Bile salt export pump (O95342 whole entry): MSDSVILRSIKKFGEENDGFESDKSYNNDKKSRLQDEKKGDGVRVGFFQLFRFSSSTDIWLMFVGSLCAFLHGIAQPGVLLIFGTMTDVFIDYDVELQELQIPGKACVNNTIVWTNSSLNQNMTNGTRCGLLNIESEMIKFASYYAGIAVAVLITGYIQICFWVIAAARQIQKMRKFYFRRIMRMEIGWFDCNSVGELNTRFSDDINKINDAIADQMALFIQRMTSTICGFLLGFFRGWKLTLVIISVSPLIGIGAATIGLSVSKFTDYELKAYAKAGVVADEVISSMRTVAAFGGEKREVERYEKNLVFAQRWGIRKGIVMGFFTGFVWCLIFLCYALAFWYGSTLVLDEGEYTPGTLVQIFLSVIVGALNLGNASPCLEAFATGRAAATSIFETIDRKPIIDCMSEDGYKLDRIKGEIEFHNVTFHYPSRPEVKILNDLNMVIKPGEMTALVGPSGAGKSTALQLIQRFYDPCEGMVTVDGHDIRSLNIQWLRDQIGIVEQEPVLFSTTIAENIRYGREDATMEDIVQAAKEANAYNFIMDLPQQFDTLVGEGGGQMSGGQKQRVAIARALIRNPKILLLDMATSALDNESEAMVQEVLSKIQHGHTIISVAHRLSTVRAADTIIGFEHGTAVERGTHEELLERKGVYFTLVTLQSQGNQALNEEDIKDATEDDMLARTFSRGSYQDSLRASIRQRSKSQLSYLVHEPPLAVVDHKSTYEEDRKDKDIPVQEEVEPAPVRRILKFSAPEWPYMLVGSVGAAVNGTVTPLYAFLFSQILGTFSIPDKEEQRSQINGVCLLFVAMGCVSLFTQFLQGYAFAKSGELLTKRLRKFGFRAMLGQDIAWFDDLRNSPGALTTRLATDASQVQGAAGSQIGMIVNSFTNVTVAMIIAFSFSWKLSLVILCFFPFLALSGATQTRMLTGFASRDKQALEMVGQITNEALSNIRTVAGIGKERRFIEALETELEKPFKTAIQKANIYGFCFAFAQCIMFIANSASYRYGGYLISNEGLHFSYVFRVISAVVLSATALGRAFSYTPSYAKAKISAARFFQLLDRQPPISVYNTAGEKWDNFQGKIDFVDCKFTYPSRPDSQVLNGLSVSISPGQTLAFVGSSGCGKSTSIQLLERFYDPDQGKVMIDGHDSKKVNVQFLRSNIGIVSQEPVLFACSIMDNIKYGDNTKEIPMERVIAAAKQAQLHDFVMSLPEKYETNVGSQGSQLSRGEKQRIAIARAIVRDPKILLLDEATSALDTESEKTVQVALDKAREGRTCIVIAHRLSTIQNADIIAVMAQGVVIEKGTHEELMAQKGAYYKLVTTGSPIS

[5] = target: T5, Solute carrier family 15 member 1 (Homo sapiens, UniProt P46059); assay: Inhibitors of transporters of clinical importance in the absorption and disposition of drugs, PEPT1
T5 sequence (P46059 whole entry): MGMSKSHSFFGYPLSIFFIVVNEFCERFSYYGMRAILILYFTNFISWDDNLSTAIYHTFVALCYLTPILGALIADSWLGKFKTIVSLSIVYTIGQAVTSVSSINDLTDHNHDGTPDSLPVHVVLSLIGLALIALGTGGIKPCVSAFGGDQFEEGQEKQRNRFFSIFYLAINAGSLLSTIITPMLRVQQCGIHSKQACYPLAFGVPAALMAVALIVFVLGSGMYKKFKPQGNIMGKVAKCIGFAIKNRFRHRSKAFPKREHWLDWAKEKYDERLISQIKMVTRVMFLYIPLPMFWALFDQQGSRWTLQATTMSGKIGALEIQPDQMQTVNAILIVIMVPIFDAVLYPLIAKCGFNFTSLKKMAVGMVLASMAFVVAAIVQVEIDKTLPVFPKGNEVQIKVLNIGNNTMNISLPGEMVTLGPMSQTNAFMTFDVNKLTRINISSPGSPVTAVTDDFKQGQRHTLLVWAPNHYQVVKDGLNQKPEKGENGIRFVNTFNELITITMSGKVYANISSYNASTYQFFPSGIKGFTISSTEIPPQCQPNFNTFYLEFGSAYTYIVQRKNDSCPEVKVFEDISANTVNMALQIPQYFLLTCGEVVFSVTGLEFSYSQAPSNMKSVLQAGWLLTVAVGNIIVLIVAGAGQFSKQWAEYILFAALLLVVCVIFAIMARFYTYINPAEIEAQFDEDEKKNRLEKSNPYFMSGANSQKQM

| Activity [1] | Activity [2] | Activity [3] | Activity [4] | Activity [5] | SMILES | Activity (Bile salt export pump) |
| --- | --- | --- | --- | --- | --- | --- |
| transporter inhibitor | transporter inhibitor | transporter inhibitor | transporter inhibitor |  | CO[C@H]1/C=C/O[C@@]2(C)Oc3c(C)c(O)c4c(O)c(c(/C=N/N5CCN(C)CC5)c(O)c4c3C2=O)NC(=O)/C(C)=C\C=C\[C@H](C)[C@H](O)[C@@H](C)[C@@H](O)[C@@H](C)[C@H](OC(C)=O)[C@@H]1C [RIFAMPIN] | transporter inhibitor |
|  |  |  |  | transporter inhibitor | NCC(=O)N1CCC[C@H]1C(=O)O [GLYCYL PROLINE] (H-Gly-Pro-OH) |  |
